Source: ChEMBL document CHEMBL1126428, “Inhibitors of myo-inositol monophosphatase unrelated to the enzyme substrate” (Bioorg Med Chem Lett, 1992)

Target: T1, Inositol monophosphatase 1 (Bos taurus, UniProt P20456)
T1 sequence (P20456 whole entry): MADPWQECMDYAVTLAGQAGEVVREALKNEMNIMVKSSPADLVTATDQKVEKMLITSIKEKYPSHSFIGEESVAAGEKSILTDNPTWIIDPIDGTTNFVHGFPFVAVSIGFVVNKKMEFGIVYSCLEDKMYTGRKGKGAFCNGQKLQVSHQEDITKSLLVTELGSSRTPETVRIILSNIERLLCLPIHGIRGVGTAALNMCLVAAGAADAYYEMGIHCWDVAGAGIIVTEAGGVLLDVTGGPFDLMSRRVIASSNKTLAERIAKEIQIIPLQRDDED
Assay: Concentration required for 50% inhibition of Inositol monophosphatase

Row | SMILES | IC50 [µM]
1 | O=P(O)(O)C(O)(Cc1ccc(Cl)cc1Cl)P(=O)(O)O | 23
2 | COc1ccc(C(O)(P(=O)(O)O)P(=O)(O)O)cc1 | 40
3 | O=P(O)(O)C(O)(c1ccccc1)P(=O)(O)O | 29
4 | O=P(O)(O)C(O)(c1ccc(Oc2cccc3c2CCCC3)cc1)P(=O)(O)O | 0.61
5 | O=P(O)(O)C(O)(c1ccc(Cl)cc1)P(=O)(O)O | 36
6 | CN(C)c1ccc(C(O)(P(=O)(O)O)P(=O)(O)O)cc1 | 140
7 | O=P(O)(O)C(O)(Cc1ccccc1)P(=O)(O)O | 38
8 | CC(O)(P(=O)(O)O)P(=O)(O)O [ETIDRONIC ACID] | 110
